Reference: the RepoRT retention time repository

Assay: Waters ACQUITY UPLC BEH C18, 100 × 2.1 mm, 1.7 µm, 40 °C, 0.3 to 0.4 mL/min, estimated dead time 0.63 min; A: water + 0.1% formic acid; B: methanol + 0.1% formic acid; gradient (min/%B) 0/0.5 0.1/0.5 10/80 10.1/99.5 12/99.5
Conditions: stereoisomer not certain

| SMILES | LC retention time [min] |
| --- | --- |
| CCN1CC2(OC(=O)c3ccccc3N)CCC(OC)C34C1C(CC23)C1(O)CC(OC)C2CC4C1(O)C2OC (centres undefined) | 4.95 |
| COc1cc(-c2cc(=O)c3c(O)cc(OC4OC(C(=O)O)C(O)C(O)C4O)cc3o2)cc(OC)c1OC1OC(CO)C(O)C(O)C1O (centres undefined) | 4.05 |
| CCC1C(=O)OCc2c1cc1n(c2=O)Cc2cc3ccccc3nc2-1 (centres undefined) | 5.77 |
| CC1OC(Oc2cc3c(O)cc(O)cc3[o+]c2-c2ccc(O)c(O)c2)C(O)C(O)C1O (centres undefined) | 3.18 |
| OCC1OC(Oc2ccc(O)cc2)C(O)C(O)C1O (centres undefined) | 1.88 |
| C=CC1C(OC2OC(CO)C(O)C(O)C2O)OC=C2C(=O)N3Cc4cc5ccccc5nc4C3CC21 (centres undefined) | 5.27 |
| O=C(CCc1ccccc1)c1c(O)cc(O)cc1OC1OC(CO)C(O)C(O)C1O (centres undefined) | 4.85 |
| COc1ccc(-c2cc(=O)c3c(O)cc(OC4OC(CO)C(O)C(O)C4OC4OC(C)C(O)C(O)C4O)cc3o2)cc1 (centres undefined) | 5.26 |
| COc1c(CO)c(OC2OC(COC3OCC(O)C(O)C3O)C(O)C(O)C2O)cc2c1C(=O)c1ccccc1C2=O (centres undefined) | 5.23 |
| NC(=O)CN1CC2CC(C1)c1cccc(=O)n1C2 (centres undefined) | 2.18 |
| COc1cc(-c2oc3cc(O)cc(O)c3c(=O)c2OC2OC(CO)C(O)C(O)C2OC2OC(C)C(O)C(O)C2O)ccc1O (centres undefined) | 3.72 |
| COc1ccc(CCNC(=O)C=Cc2ccc(O)c(OC)c2)cc1O | 5.29 |
| CS(=O)CCCCC#N (centres undefined) | 2.21 |
| CC1OC(OC2C(OC3C(OC4CCC5(C)C(CCC6(C)C5CC=C5C7CC(C)(C)CC(=O)C7(C)CCC56C)C4(C)CO)OC(C(=O)O)C(O)C3O)OCC(O)C2O)C(O)C(O)C1O (centres undefined) | 7.85 |
| C1CCN2CC3CC(CN4CCCCC34)C2C1 (centres undefined) | 2.33 |
| CC1OC(OC2C(OC3C(OC4CCC5(C)C(CCC6(C)C5C=CC5=C7CC(C)(C)CC(O)C7(C)CCC56C)C4(C)CO)OC(C(=O)O)C(O)C3O)OC(C(=O)O)C(O)C2O)C(O)C(O)C1O (centres undefined) | 7.57 |
| CN1CCc2cc3c(cc2C(=O)Cc2ccc4c(c2C1)OCO4)OCO3 | 4.36 |
| CC(C)C(NC(=O)C(N)Cc1ccccc1)C(=O)O (centres undefined) | 2.98 |
| CCCCc1ccc(C(=O)O)nc1 | 2.79 |
| CC=C1CN2C3CC1C(CO)C2Cc1c3[nH]c2cc(OC)ccc12 (centres undefined) | 3.68 |

| SMILES | LC retention time [min] |
| --- | --- |
| CC(C)=CCc1cc(-c2coc3cc(O)ccc3c2=O)ccc1O | 7.24 |
| Cc1ccc2ccc3ccc(C)nc3c2n1 | 3.47 |
| CCCCCCCCC=CCCCCCCCC(=O)OCC(O)COP(=O)(O)OCCN (centres undefined) | 10.2 |
| CCCCCC=CCC=CCC=CCCCCC(=O)OCC(O)COP(=O)([O-])OCC[N+](C)(C)C (centres undefined) | 8.85 |
| OCC1OC(Oc2cc3c(O)cc(O)cc3[o+]c2-c2cc(O)c(O)c(O)c2)C(OC2OCC(O)C(O)C2O)C(O)C1O (centres undefined) | 2.65 |
| CC(O)(CC(=O)O)CC(=O)O | 1.98 |
| CC1(C)CC2C3=CCC4C5(C)CCC(OC6OC(C(=O)O)C(O)C(O)C6OC6OC(CO)C(O)C(O)C6OC6OC(CO)C(O)C(O)C6O)C(C)(CO)C5CCC4(C)C3(C)CCC2(C)CC1OC1OCC(O)C(O)C1O (centres undefined) | 5.5 |
| COc1ccc(C2CC(=O)c3c(O)cc(OC4OC(CO)C(O)C(O)C4OC4OC(C)C(O)C(O)C4O)cc3O2)cc1O (centres undefined) | 4.59 |
| CC1(C)CC(=O)C2(C)CCC3(C)C(=CCC4C5(C)CCC(OC6OC(C(=O)O)C(O)C(O)C6OC6OC(CO)C(O)C(O)C6OC6OC(CO)C(O)C(O)C6O)C(C)(CO)C5CCC43C)C2C1 (centres undefined) | 7.49 |
| O=C(C=Cc1ccc(O)cc1)OC1CC(O)(C(=O)O)CC(O)C1O (centres undefined) | 3.08 |
| CCCCCC=CC=CC(O)CCCCCCCC(=O)O (centres undefined) | 9.79 |
| O=c1oc2cc(O)ccc2c2oc3cc(O)ccc3c12 | 5.97 |
| CC(CSCC(NC(=O)CCC(NCC1(O)OCC(O)C(O)C1O)C(=O)O)C(=O)NCC(=O)O)C(=O)O (centres undefined) | 2.4 |
| C=CC12CN(C)C3CC14C(=Nc1ccccc14)C1CC2C3CO1 (centres undefined) | 3.58 |
| COc1ccc(-c2coc3cc(OC4OC(COC(=O)CC(=O)O)C(O)C(O)C4O)ccc3c2=O)cc1 (centres undefined) | 5.43 |
| CC1(C)CCC2(C(=O)O)CCC3(C)C(=CCC4C5(C)CC(O)C(OC6OC(CO)C(OC7OC(CO)C(O)C(O)C7O)C(O)C6O)C(C)(CO)C5CCC43C)C2C1 (centres undefined) | 7.01 |
| COc1cc(CC2COC(c3ccc(O)c(OC)c3)C2CO)ccc1O (centres undefined) | 4.96 |
| CC1OC(OC2C(OC3CCC4(C)C(=CCC5C4CCC4(C)C5CC5OC6(CCC(COC(=O)CC(C)(O)CC(=O)O)CO6)C(C)C54)C3)OC(CO)C(O)C2O)C(O)C(O)C1O (centres undefined) | 7.38 |
| CC1=C(O)C(=O)CC(OC2CC(C)(C)CC3C4=CCC5C6(C)CCC(OC7OC(C(=O)O)C(O)C(O)C7OC7OC(CO)C(O)C(O)C7OC7OC(C)C(O)C(O)C7O)C(C)(CO)C6CCC5(C)C4(C)CCC23C)O1 (centres undefined) | 7.68 |
